These results are taken from publication PMC10817170, “Effect of an NHE3 inhibitor in combination with an NPT2b inhibitor on gastrointestinal phosphate absorption in Rodent models” (PLOS ONE, 2024).

Several values for one entry are separate records, joined by “and”; a condition that tells them apart may be missing. Identical values can stand only once.

Data set [1] has as its system intestinal phosphate absorption. Nature of the data set: Phosphate absorption in rats: 33P in plasma (15 min) and recovered in gastrointestinal tract (4 h), single agents and combination. In kind it is in vivo. The conditions noted are these: 0.4 mg/kg LY3304000, 10 mg/kg LY3358966 or both. The procedure:
We also evaluated the effect of LY3304000 and LY3358966 in combination on phosphate absorption in rats by measuring radioactive phosphate recovered in either plasma or the gastrointestinal (GI) tract. In this combination study, two vehicles were used. One is 1% HEC vehicle for making LY3304000 dosing solution, another is 0.46% PVP-VA vehicle contained in LY3358966 SDD. To make the LY3358966 dosing solution, an appropriate amount of LY3358966-SDD was weighed for a 10 mg/kg API dosing solution with 5 mL/kg dosing volume and dissolved in water. To make the LY3304000 dosing solution, an appropriate amount of LY3304000 was weighed for a 0.4 mg/kg dosing solution with 5 mL/kg dosing volume and dissolved in 1% HEC. The Radiolabeled Phosphate Dosing Solutions was made as described above. Following 4-hour fasting with access to water, male SD rats were orally dosed at 10 mL/kg with either two vehicles, an LY3358966 dosing solution and 1% HEC vehicle, an LY3304000 dosing solution and 0.46% PVP-VA vehicle, or an LY3304000 and LY3358966 dosing solutions, combined 1:1 by volume. Fifteen minutes later, Radiolabeled Phosphate Dosing Solution was orally dosed in a 2 mL volume. Fifteen minutes after the radiolabeled phosphate dose, blood was collected by retro orbital bleeding, and plasma was prepared. Radioactivity (dpm) in 20-μL plasma was measured by scintillation counting. The mole amount of phosphate uptake in the plasma was calculated as described above. Four hours post radioactive phosphate dose, the animals were sacrificed by asphyxiation with CO2 followed by cervical dislocation and then the stomach, small intestine, large intestine, and feces were collected and weighed. The tissues and feces were digested in 20 mL or 10 mL of 1 N NaOH, respectively, overnight at 37°C. A 100 μL sample of the homogenates were dispensed into scintillation vials and mixed with 10 mL of Optiphase Supermax scintillation fluid (PerkinElmer), and radioactivity (dpm) was measured by scintillation counting. Very little radioactivity was detected in the feces at 4 hours post radioactive phosphate dose. The percentage of radiolabeled phosphate recovered in the gastrointestinal tissue was defined as radioactivity (dpm) recovered in each fraction compared to the amount of radioactivity (dpm) administered. The mole amount of phosphate uptake into plasma in vehicle and LY3358966 and LY3304000 alone groups were compared to the LY3358966 and LY3304000 combination group using One-way ANOVA with Dunnett’s multiple comparisons. Percent recovery of ^33P phosphate in the rat gastrointestinal tract was analyzed by two-way analysis of variance (ANOVA) in JMP 12.1 to test for additivity of the effects of LY3304000 and LY3358966 on inhibiting phosphate absorption.

In data set [2] the target is T1, Human NPT2b (Homo sapiens, UniProt O95436).
T1 construct: expressed in transfected cells; host or cells: T-Rex CHO (Thermo Fisher Scientific), tetracycline-inducible
T1 sequence (O95436 1-690): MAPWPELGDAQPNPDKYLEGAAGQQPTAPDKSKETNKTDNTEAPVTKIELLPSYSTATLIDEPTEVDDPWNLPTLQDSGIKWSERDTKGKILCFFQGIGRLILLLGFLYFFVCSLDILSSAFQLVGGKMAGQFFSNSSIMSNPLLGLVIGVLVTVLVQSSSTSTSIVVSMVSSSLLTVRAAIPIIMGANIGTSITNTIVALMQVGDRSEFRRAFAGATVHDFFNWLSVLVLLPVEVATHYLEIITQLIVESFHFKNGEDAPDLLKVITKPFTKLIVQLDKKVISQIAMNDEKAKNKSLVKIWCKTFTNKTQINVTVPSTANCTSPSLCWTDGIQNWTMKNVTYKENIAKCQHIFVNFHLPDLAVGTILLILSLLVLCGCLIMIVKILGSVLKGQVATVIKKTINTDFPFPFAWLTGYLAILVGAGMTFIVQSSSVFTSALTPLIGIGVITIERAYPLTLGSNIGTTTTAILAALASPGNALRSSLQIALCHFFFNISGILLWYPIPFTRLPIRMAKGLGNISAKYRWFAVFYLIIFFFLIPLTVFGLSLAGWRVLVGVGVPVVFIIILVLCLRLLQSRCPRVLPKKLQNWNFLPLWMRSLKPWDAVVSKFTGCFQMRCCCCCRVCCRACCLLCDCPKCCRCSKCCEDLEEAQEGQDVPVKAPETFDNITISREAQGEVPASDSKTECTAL
Nature of the data set: NPT2b activity assay (33P-phosphate uptake in T-Rex CHO cells). In kind it is cell-based. Conditions: geometric mean, n=3. How it is done: Generation of inducible human, mouse, and rat NPT2b overexpressing T-Rex™ Chinese Hamster Ovary (CHO, Thermo Fisher Scientific) cells and the NPT2b activity assay were described previously. Briefly, cells were plated in 96-well CytoStar-T® scintillating microplates and were incubated overnight in medium plus 100 ng/mL of tetracycline to induce the expression of human NPT2b. The cells were then washed 3 times with 200 μL Assay Buffer (137 mM NaCl, 5.4 mM KCl, 2.8 mM CaCl2, 1.2 mM MgSO4, and 14 mM Tris-HCl buffer, pH 7.5). LY3304000 serially diluted 1-to-3 in DMSO was added to cells with Assay Buffer. An equal volume of H3^33PO4 (PerkinElmer) in Assay Buffer supplemented with 5 μM potassium phosphate was then added to initiate radiolabeled phosphate (^33P-phosphate) uptake. The final phosphate concentration was 2.5 μM. Following a 60-minute incubation at room temperature, an equal volume of Assay Buffer containing 400 μM phloretin was added to stop ^33P-phosphate uptake. The plate was immediately read on a Wallac MicroBeta Trilux liquid scintillation counter. Percent inhibition at all concentrations tested was calculated, and IC50 values were then determined using a 4-parameter logistic curve fitting equation.

The subject of data set [3] is Madin-Darby Canine Kidney (MDCK) cell. Nature of the data set: MDCK cell uni-directional permeability assay. In kind it is in vitro ADME. Conditions: 20 µM, one hour, 24-well format. How it is done: LY3304000 has very low in vitro cell permeability. In a standard Madin-Darby Canine Kidney (MDCK) cell uni-directional permeability assay, measuring the percentage A to B (% A-B) transport in a 24-well format, the % A-B of LY330400 transport is 0.16 % at 20 µM for the assay duration of one hour.

Data set [4] in a line: Pharmacokinetics study after oral dosing. It is filed as in vivo, rats. The procedure:
Following oral dosing of the free base from of LY3304000 in a vehicle of 1% Hydroxyethylcellulose, 0.25% Polysorbate 80, and 0.05% Antifoam in purified water, the level of LY3304000 in rat blood 2.5-hour post dose was below the limit of quantification of LY330400 (0.815 nM with LC/MS method). Further characterization of the pharmacokinetic properties of LY3304000 was hampered by an inability to identify an appropriate vehicle for IV dosing.

Take `CN1Cc2c(Cl)cc(Cl)cc2[C@H](c2cccc(S(=O)(=O)NCCOCCOCCN/C(=N\C(N)=O)NCCCCN/C(=N/C(N)=O)NCCOCCOCCNS(=O)(=O)c3cccc([C@@H]4CN(C)Cc5c(Cl)cc(Cl)cc54)c3)c2)C1.Cl.Cl` [LY3304000, (Z)-[[4-[[(Z)-N’-carbamoyl-N-[2-[2-[2-[[3-[(4S)-6,8-dichloro-2-methyl-3,4-dihydro-1H-isoquinolin-4-yl]phenyl]sulfonylamino]ethoxy]ethoxy]ethyl]carbamimidoyl]amino]butylamino]-[2-[2-[2-[[3-[(4S)-6,8-dichloro-2-methyl-3,4-dihydro-1H-isoquinolin-4-yl]phenyl]sulfonylamino]ethoxy]ethoxy]ethylamino]methylene]urea dihydrochloride]: the “phosphate uptake into plasma” value in data set [1] (15 min post 33P phosphate, vehicle 166, mean ± SEM, n=8) is 118 nmol and 118 ± 8 nmol. Moreover, in data set [1] (4 h), the “percentage of radiolabeled phosphate recovered, Feces” value is recorded as below 0.1%; the “percentage of radiolabeled phosphate recovered, Large Intestine” value is 18.16 +/- 2.58%; the “percentage of radiolabeled phosphate recovered, Small Intestine” value is on record as 8.64 +/- 0.32%; the “percentage of radiolabeled phosphate recovered, Stomach” value is 3.9 +/- 0.49%. Besides, in data set [1] (4 h post 33P phosphate, stomach, small intestine, large intestine and feces, vehicle 25%), the “percentage of 33P recovered in GI tract, total” value was 31 ± 7% and 31% and 30.7 +/- 2.43%. Moreover, in data set [1] (Rattus norvegicus, 0.25 h, 15 min post 33P phosphate, versus vehicle, read-out: inhibition of phosphate uptake into plasma), the inhibition – broadly, the relative decrease from the control value, in per cent – at 0.4 mg/kg was determined as 29%. Further, in data set [2], the IC50 (commonly the concentration that inhibits the measured activity by half) is 58.4 µM. For the same molecule, in data set [3], the “percentage A to B (% A-B) transport” value is given as 0.16%. The “detection in plasma following oral dosing” value in data set [4] (oral dosing) is on record as “could not be detected”. Moreover, in data set [4] (rat, whole blood, oral, free base, 2.5-hour post dose, below limit of quantification (LC/MS), read-out: level in rat blood), the concentration at 2.5 h was below 0.815 nM.
